Test results taken from the NIST ThermoML archive (doi:10.1016/j.jct.2018.05.027).

Experiments:
[1] = xn = mol fraction of the nth substance listed; details: Liquid, Vibrating wire viscometry, x1 = 1
[2] = Liquid

CCC(C)O (centres undefined) [butan-2-ol] + Cc1ccc(C)c(C)c1
viscosity [mPa·s], [1]
Details | 293.15 K | 298.15 K | 313.15 K | 333.15 K | 353.15 K
100 kPa | 3.767 | 3.102 | 1.839 | 1.007 | 0.6198
1000 kPa | 3.813 | 3.123 | 1.862 | 1.023 | 0.6273
5000 kPa | 3.978 | 3.28 | 1.947 | 1.078 | 0.6577
10000 kPa | 4.235 | 3.462 | 2.041 | 1.133 | 0.6999
20000 kPa | 4.696 | 3.873 | 2.262 | 1.254 | 0.7717
30000 kPa | 5.159 | 4.253 | 2.503 | 1.372 | 0.8354
40000 kPa | 5.693 | 4.697 | 2.734 | 1.491 | 0.9088
50000 kPa | 6.274 | 5.142 | 2.99 | 1.624 | 0.9898
60000 kPa | 6.831 | 5.553 | 3.237 | 1.759 | 1.07
70000 kPa | 7.377 | 6.044 | 3.558 | 1.905 | 1.151
80000 kPa | 8.056 | 6.544 | 3.841 | 2.081 | 1.242
100000 kPa | 9.598 | 7.646 | 4.456 | 2.427 | 1.444
120000 kPa | 11.31 | 9.053 | 5.179 | 2.716 | 1.644
140000 kPa | 13.38 | 10.43 | 5.933 | 3.099 | 1.845

CCC(C)O (centres undefined) [butan-2-ol]
viscosity [mPa·s], [2]
Details | 293.15 K | 298.15 K | 313.15 K | 333.15 K | 353.15 K
100 kPa, Concentric cylinders viscometry | 3.744 | – | 1.832 | 1.011 | 0.6218
100 kPa, Vibrating wire viscometry | 3.767 | 3.102 | 1.839 | 1.007 | 0.6198
1000 kPa, Vibrating wire viscometry | 3.813 | 3.123 | 1.862 | 1.023 | 0.6273
5000 kPa, Vibrating wire viscometry | 3.978 | 3.28 | 1.947 | 1.078 | 0.6577
10000 kPa, Vibrating wire viscometry | 4.235 | 3.462 | 2.041 | 1.133 | 0.6999
20000 kPa, Vibrating wire viscometry | 4.696 | 3.873 | 2.262 | 1.254 | 0.7717
30000 kPa, Vibrating wire viscometry | 5.159 | 4.253 | 2.503 | 1.372 | 0.8354
40000 kPa, Vibrating wire viscometry | 5.693 | 4.697 | 2.734 | 1.491 | 0.9088
50000 kPa, Vibrating wire viscometry | 6.274 | 5.142 | 2.99 | 1.624 | 0.9898
60000 kPa, Vibrating wire viscometry | 6.831 | 5.553 | 3.237 | 1.759 | 1.07
70000 kPa, Vibrating wire viscometry | 7.377 | 6.044 | 3.558 | 1.905 | 1.151
80000 kPa, Vibrating wire viscometry | 8.056 | 6.544 | 3.841 | 2.081 | 1.242
100000 kPa, Vibrating wire viscometry | 9.598 | 7.646 | 4.456 | 2.427 | 1.444
120000 kPa, Vibrating wire viscometry | 11.31 | 9.053 | 5.179 | 2.716 | 1.644
140000 kPa, Vibrating wire viscometry | 13.38 | 10.43 | 5.933 | 3.099 | 1.845
